Our source for the IC50 values is patent publication US8993586B2, “N1/N2-lactam acetyl-CoA carboxylase inhibitors” (Pfizer Inc., priority 2010, dated 2015).

Molecules are shown by their SMILES.

By IC50 is commonly meant the midpoint of a concentration-inhibition curve.

For assay [1], the target named is recombinant human ACC1 (rhACC1) (Homo sapiens (Human), UniProt Q13085). The assay can be described thus: recombinant hACC1 Transcreener ADP detection FP assay. The assay is classed as biochemical. Particulars: 50 μM ATP, 120 min at 25° C. Here is the method:
(§1) For example direct inhibition of ACC activity, for the compound of Formula (I) was determined using preparations of recombinant human ACC1 (rhACC1) and recombinant human ACC2 (rhACC2).
[1] Preparation of rhACC1. Two liters of SF9 cells, infected with recombinant baculovirus containing full length human ACC1 cDNA, were suspended in ice-cold lysis buffer (25 mM Tris, pH 7.5; 150 mM NaCl; 10% glycerol; 5 mM imidazole (EMD Bioscience; Gibbstown, N.J.); 2 mM TCEP (BioVectra; Charlottetown, Canada); Benzonase nuclease (10000 U/100 g cell paste; Novagen; Madison, Wis.); EDTA-free protease inhibitor cocktail (1 tab/50 mL; Roche Diagnostics; Mannheim, Germany). Cells were lysed by 3 cycles of freeze-thaw and centrifuged at 40,000×g for 40 minutes (4° C.). Supernatant was directly loaded onto a HisTrap FF crude column (GE Healthcare; Piscataway, N.J.) and eluted with an imidazole gradient up to 0.5 M over 20 column volumes (CV). ACC1-containing fractions were pooled and diluted 1:5 with 25 mM Tris, pH 7.5, 2 mM TCEP, 10% glycerol and direct loaded onto a CaptoQ (GE Healthcare) column and eluted with an NaCl gradient up to 1 M over 20 CV's. Phosphate groups were removed from purified ACC1 by incubation with lambda phosphatase (100 U/10 μM target protein; New England Biolabs; Beverly, Mass.) for 14 hours at 4° C.; okadaic acid was added (1 μM final concentration; Roche Diagnostics) to inhibit the phosphatase. Purified ACC1 was exchanged into 25 mM Tris, pH 7.5, 2 mM TCEP, 10% glycerol, 0.5 M NaCl by 6 hour dialysis at 4° C. Aliquots were prepared and frozen at −80° C.
[2] Measurement of rhACC1 inhibition. hACC1 was assayed in a Costar #3676 (Costar, Cambridge, Mass.) 384-well plate using the Transcreener ADP detection FP assay kit (Bellbrook Labs, Madison, Wis.) using the manufacturer's recommended conditions for a 50 μM ATP reaction. The final conditions for the assay were 50 mM HEPES, pH 7.2, 10 mM MgCl2, 7.5 mM tripotassium citrate, 2 mM DTT, 0.1 mg/mL BSA, 30 μM acetyl-CoA, 50 μM ATP, and 10 mM KHCO3 Typically, a 10 μl reaction was run for 120 min at 25° C., and 10 μl of Transcreener stop and detect buffer was added and the combination incubated at room temp for an additional 1 hour. The data was acquired on a Envision Fluorescence reader (PerkinElmer) using a 620 excitation Cy5 FP general dual mirror, 620 excitation Cy5 FP filter, 688 emission (S) and a 688 (P) emission filter.

Assay [2] has as its target recombinant human ACC2 (rhACC2) (Homo sapiens (Human), UniProt O00763). The assay can be described thus: recombinant hACC2 Transcreener ADP detection FP assay. Particulars: 50 uM ATP, 50 min at 25° C. The assay is classed as biochemical. Here is the method: as §1
[3] Preparation of rhACC2. Human ACC2 inhibition was measured using purified recombinant human ACC2 (hrACC2). Briefly, a full length Cytomax clone of ACC2 was purchased from Cambridge Bioscience Limited and was sequenced and subcloned into PCDNA5 FRT TO-TOPO (Invitrogen, Carlsbad, Calif.). The ACC2 was expressed in CHO cells by tetracycline induction and harvested in 5 liters of DMEM/F12 with glutamine, biotin, hygromycin and blasticidin with 1 μg/mL tetracycline (Invitrogen, Carlsbad, Calif.). The conditioned medium containing ACC2 was then applied to a Softlink Soft Release Avidin column (Promega, Madison, Wis.) and eluted with 5 mM biotin. […] The purified ACC2 was dialyzed in 50 mM Tris, 200 mM NaCl, 4 mM DTT, 2 mM EDTA, and 5% glycerol. […] For measurement of ACC2 activity and assessment of ACC2 inhibition, test compounds were dissolved in DMSO and added to the rhACC2 enzyme as a 5× stock with a final DMSO concentration of 1%.
[4] Measurement of human ACC2 inhibition. hACC2 was assayed in a Costar #3676 (Costar, Cambridge, Mass.) 384-well plate using the Transcreener ADP detection FP assay kit (Bellbrook Labs, Madison, Wis.) using the manufacturer's recommended conditions for a 50 uM ATP reaction. The final conditions for the assay were 50 mM HEPES, pH 7.2, 5 mM MgCl2, 5 mM tripotassium citrate, 2 mM DTT, 0.1 mg/mL BSA, 30 μM acetyl-CoA, 50 μM ATP, and 8 mM KHCO3 Typically, a 10 μl reaction was run for 50 min at 25° C., and 10 μl of Transcreener stop and detect buffer was added and the combination incubated at room temp for an additional 1 hour. The data was acquired on an Envision Fluorescence reader (PerkinElmer) using a 620 excitation Cy5 FP general dual mirror, 620 excitation Cy5 FP filter, 688 emission (S) and a 688 (P) emission filter.

Chain of recombinant human ACC2 (rhACC2) (O00763 whole entry V2141I): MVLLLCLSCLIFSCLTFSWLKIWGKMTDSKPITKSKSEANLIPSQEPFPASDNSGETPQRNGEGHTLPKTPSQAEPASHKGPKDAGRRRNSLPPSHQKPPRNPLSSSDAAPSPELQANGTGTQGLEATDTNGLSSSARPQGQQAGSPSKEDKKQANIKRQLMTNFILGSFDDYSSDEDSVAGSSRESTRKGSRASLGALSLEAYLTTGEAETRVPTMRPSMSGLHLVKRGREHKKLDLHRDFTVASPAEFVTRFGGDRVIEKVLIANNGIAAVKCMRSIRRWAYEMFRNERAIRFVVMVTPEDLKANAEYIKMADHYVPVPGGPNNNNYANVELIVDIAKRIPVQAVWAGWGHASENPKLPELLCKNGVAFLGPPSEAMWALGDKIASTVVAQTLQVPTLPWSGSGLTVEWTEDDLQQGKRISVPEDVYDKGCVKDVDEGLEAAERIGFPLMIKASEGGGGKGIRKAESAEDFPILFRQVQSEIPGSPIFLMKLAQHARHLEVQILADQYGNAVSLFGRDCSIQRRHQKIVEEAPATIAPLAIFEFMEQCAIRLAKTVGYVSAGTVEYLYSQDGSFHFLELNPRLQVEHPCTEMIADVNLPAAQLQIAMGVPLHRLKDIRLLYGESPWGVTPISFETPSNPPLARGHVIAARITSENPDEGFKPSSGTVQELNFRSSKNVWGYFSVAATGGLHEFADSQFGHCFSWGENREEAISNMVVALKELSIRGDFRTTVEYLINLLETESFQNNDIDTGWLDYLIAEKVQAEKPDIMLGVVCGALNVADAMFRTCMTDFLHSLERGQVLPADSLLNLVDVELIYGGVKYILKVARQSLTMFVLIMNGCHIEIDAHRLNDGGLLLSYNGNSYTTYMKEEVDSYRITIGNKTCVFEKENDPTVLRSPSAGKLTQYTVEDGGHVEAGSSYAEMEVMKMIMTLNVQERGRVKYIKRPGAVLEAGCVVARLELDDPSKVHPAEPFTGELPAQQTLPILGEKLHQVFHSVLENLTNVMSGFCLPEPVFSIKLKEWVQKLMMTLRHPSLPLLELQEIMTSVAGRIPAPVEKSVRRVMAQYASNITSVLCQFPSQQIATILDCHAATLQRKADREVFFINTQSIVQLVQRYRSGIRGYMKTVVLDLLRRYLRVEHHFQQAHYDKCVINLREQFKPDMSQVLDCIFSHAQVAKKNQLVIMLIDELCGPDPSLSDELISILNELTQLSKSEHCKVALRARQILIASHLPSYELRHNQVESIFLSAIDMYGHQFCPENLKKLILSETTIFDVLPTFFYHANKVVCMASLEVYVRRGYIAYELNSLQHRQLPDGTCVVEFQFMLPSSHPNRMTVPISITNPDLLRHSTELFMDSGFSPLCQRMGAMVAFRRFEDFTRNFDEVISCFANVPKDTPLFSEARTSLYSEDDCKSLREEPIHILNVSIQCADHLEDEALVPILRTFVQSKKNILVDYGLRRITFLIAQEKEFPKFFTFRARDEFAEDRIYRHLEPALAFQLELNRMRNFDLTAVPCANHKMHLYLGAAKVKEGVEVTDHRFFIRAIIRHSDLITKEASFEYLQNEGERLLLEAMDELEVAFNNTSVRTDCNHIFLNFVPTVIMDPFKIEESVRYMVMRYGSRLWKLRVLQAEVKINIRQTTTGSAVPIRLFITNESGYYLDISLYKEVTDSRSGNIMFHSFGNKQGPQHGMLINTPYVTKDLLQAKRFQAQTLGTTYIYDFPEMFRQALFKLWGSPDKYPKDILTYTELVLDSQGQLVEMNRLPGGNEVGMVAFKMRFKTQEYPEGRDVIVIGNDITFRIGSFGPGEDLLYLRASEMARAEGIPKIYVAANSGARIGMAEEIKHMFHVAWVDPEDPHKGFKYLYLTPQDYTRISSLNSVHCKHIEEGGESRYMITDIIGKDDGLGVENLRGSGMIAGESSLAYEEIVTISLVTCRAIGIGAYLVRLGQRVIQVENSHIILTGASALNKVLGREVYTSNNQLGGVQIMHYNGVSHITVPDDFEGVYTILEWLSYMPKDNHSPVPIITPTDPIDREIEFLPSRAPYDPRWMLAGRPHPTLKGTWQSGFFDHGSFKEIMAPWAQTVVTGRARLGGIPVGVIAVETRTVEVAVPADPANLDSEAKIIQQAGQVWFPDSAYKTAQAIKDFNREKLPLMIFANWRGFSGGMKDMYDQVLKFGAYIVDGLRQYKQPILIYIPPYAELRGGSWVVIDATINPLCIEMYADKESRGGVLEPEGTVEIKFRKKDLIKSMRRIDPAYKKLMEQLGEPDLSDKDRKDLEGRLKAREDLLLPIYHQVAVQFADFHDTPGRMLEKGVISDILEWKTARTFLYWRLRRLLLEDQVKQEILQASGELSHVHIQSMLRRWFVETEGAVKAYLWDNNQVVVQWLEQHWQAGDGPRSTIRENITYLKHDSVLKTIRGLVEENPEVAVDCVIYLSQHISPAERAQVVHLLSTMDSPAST

Regarding `CC(C)(C)n1cc2c(n1)C(=O)NC1(CCN(C(=O)c3ccc4cnc(N)cc4c3)CC1)C2` [Example 59], the figures for the IC50 in assay [1] and in assay [2] were 0.123 µM and 0.014 µM, respectively.
For `COc1cc(C(=O)N2CCC3(CC2)Cc2cnn(C(C)C)c2C(=O)N3)nc2c(OC)cccc12` [Example 17] the same measures were 0.072 µM and 0.031 µM.
For `Cn1[nH]c2cc(C(=O)N3CCC4(CC3)Cc3cn(C(C)(C)C)nc3C(=O)N4)ccc2c1=O` [Example 84] the same measures were 0.194 µM and 0.033 µM.
For `CN(C)c1nccc2ccc(C(=O)N3CCC4(CC3)Cc3cn(C(C)(C)C)nc3C(=O)N4)cc12` [Example 103, 2′-tert-butyl-1-(1-(dimethylamino)isoquinoline-7-carbonyl)-4′,6′-dihydrospiro[piperidine-4,5′-pyrazolo[3,4-c]pyridin]-7′(2′H)-one] the same measures were 0.073 µM and 0.0089 µM.
For `CC(C)n1ncc2c1C(=O)NC1(CCN(C(=O)c3ccc4cccnc4c3)CC1)C2` [Example 24], the results for the IC50 in assay [1] and in assay [2] were 0.688 µM and 0.32 µM, respectively.
For `COc1n[nH]c2cc(C(=O)N3CCC4(CC3)Cc3cn(C(C)(C)C)nc3C(=O)N4)ccc12` [Example 79] the same measures were 0.216 µM and 0.018 µM.
As to `COc1ccc2ccc(C(=O)N3CCC4(CC3)Cc3cn(C(C)(C)C)nc3C(=O)N4)cc2c1` [Example 49], the IC50 came out at 0.0085 µM in assay [1] and 0.0038 µM in assay [2].
For `COCCNc1nccc2ccc(C(=O)N3CCC4(CC3)Cc3cn(C(C)(C)C)nc3C(=O)N4)cc12` [Example 120], in that order: 0.047 µM and 0.0061 µM.
Take `CNc1nccc2ccc(C(=O)N3CCC4(CC3)Cc3cnn(C(C)C)c3C(=O)N4)cc12` [Example 36]: the concentration for half-maximal inhibition (IC50) in assay [1] stood at 0.067 µM; in assay [2] it was 0.028 µM.
For `COc1n[nH]c2ccc(C(=O)N3CCC4(CC3)Cc3cn(C(C)(C)C)nc3C(=O)N4)cc12` [Example 81] the same measures were 0.046 µM and 0.0053 µM.
Consider `CC(C)n1ncc2c1C(=O)NC1(CCN(C(=O)c3ccc4[nH]ncc4c3)CC1)C2` [Example 5], for which the IC50 in assay [1] is 0.227 µM; in assay [2], 0.174 µM.
For `CNc1ccc2ccc(C(=O)N3CCC4(CC3)Cc3cnn(C(C)C)c3C(=O)N4)cc2n1` [Example 29] the same measures were 0.033 µM and 0.0092 µM.
On to `COc1cccc2cc(C(=O)N3CCC4(CC3)Cc3cn(C(C)(C)C)nc3C(=O)N4)ccc12` [Example 50], for which the IC50 in assay [1] was 0.03 µM; in assay [2], 0.0075 µM.
`CNc1cc2ccc(C(=O)N3CCC4(CC3)Cc3cnn(C(C)C)c3C(=O)N4)cc2cn1` [Example 38]: the IC50 worked out at 0.364 µM in assay [1] and 0.107 µM in assay [2].
Take `Cc1cc(C(=O)N2CCC3(CC2)Cc2cnn(C(C)C)c2C(=O)N3)cc2c[nH]nc12` [Example 4]: the 50% inhibitory concentration (IC50) was 0.043 µM in assay [1] and 0.038 µM in assay [2].
For `COc1ccc2ncc(C(=O)N3CCC4(CC3)Cc3cn(C(C)(C)C)nc3C(=O)N4)cc2c1` [Example 48] the same measures were 0.03 µM and 0.0092 µM.
For `CCNc1nccc2ccc(C(=O)N3CCC4(CC3)Cc3cn(C(C)(C)C)nc3C(=O)N4)cc12` [Example 121], in that order: 0.017 µM and 0.0027 µM.
For `CC(C)(C)n1cc2c(n1)C(=O)NC1(CCN(C(=O)c3ccc4ccnc(NC5COC5)c4c3)CC1)C2` [Example 122] the same measures were 0.494 µM and 0.077 µM.
With `CC(C)(C)n1cc2c(n1)C(=O)NC1(CCN(C(=O)c3ccc4ncccc4c3)CC1)C2` [Example 63], the IC50 stood at 0.16 µM in assay [1] and 0.028 µM in assay [2].
For `Cc1cc(C(=O)N2CCC3(CC2)Cc2cnn(C(C)(C)C)c2C(=O)N3)cc2cn[nH]c12` [Example 7], in that order: 0.062 µM and 0.047 µM.
For `CC(C)n1ncc2c1C(=O)NC1(CCN(C(=O)c3cnc4cn[nH]c4c3)CC1)C2` [Example 19] the same measures were 1.48 µM and 2.01 µM.
For `CC(C)(C)n1cc2c(n1)C(=O)NC1(CCN(C(=O)c3ccc4ccc(N)nc4c3)CC1)C2` [Example 72] the same measures were 0.028 µM and 0.0059 µM.
Take `CNc1nc2cc(C(=O)N3CCC4(CC3)Cc3cnn(C(C)C)c3C(=O)N4)ccc2[nH]1` [Example 33]: the IC50 came out at 0.523 µM in assay [1] and 0.108 µM in assay [2].
As to `CC(C)n1ncc2c1C(=O)NC1(CCN(C(=O)c3cnc4[nH]ccc4c3)CC1)C2` [Example 9], the IC50 in assay [1] was found to be 0.648 µM; in assay [2] it was 0.56 µM.
As for `CNc1nc2cc(C(=O)N3CCC4(CC3)Cc3cn(C(C)(C)C)nc3C(=O)N4)ccc2[nH]1` [Example 75], the IC50 in assay [1] came out at 0.079 µM; in assay [2], 0.011 µM.
Turning to `CC(C)(C)n1cc2c(n1)C(=O)NC1(CCN(C(=O)c3ccc4cn[nH]c4c3)CC1)C2` [Example 52], the figures for the IC50 in assay [1] and in assay [2] were 0.088 µM and 0.017 µM, respectively.
For `COc1cccc2ncc(C(=O)N3CCC4(CC3)Cc3cn(C(C)(C)C)nc3C(=O)N4)cc12` [Example 74], in that order: 0.018 µM and 0.0032 µM.
For `CC(C)(C)n1cc2c(n1)C(=O)NC1(CCN(C(=O)c3ccc4ccnc(N)c4c3)CC1)C2` [Example 100, 1-(1-aminoisoquinoline-7-carbonyl)-2′-tert-butyl-4′,6′-dihydrospiro[piperidine-4,5′-pyrazolo[3,4-c]pyridin]-7′(2′H)-one], in that order: 0.062 µM and 0.021 µM.
For `CC(C)n1ncc2c1C(=O)NC1(CCN(C(=O)c3cnc4ccccc4c3)CC1)C2` [Example 20], in that order: 0.336 µM and 0.299 µM.
As for `COc1ccc(C)c2[nH]c(C(=O)N3CCC4(CC3)Cc3cn(C(C)(C)C)nc3C(=O)N4)cc12` [Example 56], the IC50 in assay [1] worked out at 0.0074 µM; in assay [2] it was 0.0019 µM.
Regarding `CC(C)n1ncc2c1C(=O)NC1(CCN(C(=O)c3ccc4[nH]nc(C(N)=O)c4c3)CC1)C2` [Example 27], the IC50 in assay [1] came out at 0.296 µM; in assay [2], 0.132 µM.
For `CC(C)n1ncc2c1C(=O)NC1(CCN(C(=O)c3ccc4[nH]c(N)nc4c3)CC1)C2` [Example 35] the same measures were 0.487 µM and 0.091 µM.
For `CC(C)n1ncc2c1C(=O)NC1(CCN(C(=O)c3cc4ncccc4[nH]3)CC1)C2` [Example 18], in that order: 0.657 µM and 0.719 µM.
As to `CC(C)(C)n1cc2c(n1)C(=O)NC1(CCN(C(=O)c3ccc4ccc(Cl)nc4c3)CC1)C2` [Example 104, 2′-tert-butyl-1-(2-chloroquinoline-7-carbonyl)-4′,6′-dihydrospiro[piperidine-4,5′-pyrazolo[3,4-c]pyridin]-7′(2′H)-one], the IC50 in assay [1] came to 0.089 µM; in assay [2] it was 0.016 µM.
